Assay results from patent US20070128217A1 (priority 2003, published 2007).

What was measured:
[1] = tested on: antibodies in sera from SARS patients (sera 1a, 1b, 2, 6, 37, 62, London, SARS-yellow, SARS-green); type: binding, human; set-up: Binding of serum 6 to linear peptides of protein X1 of SARS-CoV Urbani / Binding of serum 37 to linear peptides of protein X1 of SARS-CoV Urbani / Binding of serum 6 to looped/cyclic peptide (PEPSCAN-ELISA) / Binding of serum 37 to looped/cyclic peptide (PEPSCAN-ELISA) / Binding of serum 37 to looped/cyclic peptides of protein X1 of SARS-CoV Urbani / Binding of serum 6 to linear peptides of protein X2 / Binding of serum 37 to linear peptides of protein X2 / Binding of serum 37 to looped/cyclic peptides of protein X2 of SARS-CoV Urbani / Binding of serum 6 to linear peptides of protein M of SARS-CoV Urbani / Binding of serum 37 to linear peptides of protein M of SARS-CoV Urbani / Binding of serum 6 to looped/cyclic peptides of protein M of SARS-CoV Urbani / Binding of serum 37 to looped/cyclic peptides of protein M of SARS-CoV Urbani / Binding of serum 6 to linear peptides of protein X3 of SARS-CoV Urbani / Binding of serum 37 to linear peptides of protein X3 of SARS-CoV Urbani / Binding of serum 37 to looped/cyclic peptides of protein X3 of SARS-CoV Urbani / Binding of serum 6 to linear peptides of protein X4 of SARS-CoV Urbani / Binding of serum 37 to linear peptides of protein X4 of SARS-CoV Urbani / Binding of serum 37 to looped/cyclic peptides of protein X4 of SARS-CoV Urbani / Binding of serum 6 to linear peptides of protein X5 of SARS-CoV Urbani / Binding of serum 37 to linear peptides of protein X5 of SARS-CoV Urbani / Binding of serum 37 to looped/cyclic peptides of protein X5 of SARS-CoV Urbani / Binding of serum 6 to linear peptides of protein N of SARS-CoV Urbani / Binding of serum 37 to linear peptides of protein N of SARS-CoV Urbani / Binding of serum 6 to linear peptide (PEPSCAN-ELISA) / Binding of serum 1a to looped/cyclic peptides of protein N of SARS-CoV Urbani / Binding of serum 1b to looped/cyclic peptides of protein N of SARS-CoV Urbani / Binding of serum 2 to looped/cyclic peptides of protein N of SARS-CoV Urbani / Binding of serum 6 to looped/cyclic peptides of protein N of SARS-CoV Urbani / Binding of serum 37 to looped/cyclic peptides of protein N of SARS-CoV Urbani / Binding of serum 62 to looped/cyclic peptides of protein N of SARS-CoV Urbani / Binding of serum London to looped/cyclic peptides of protein N of SARS-CoV Urbani / Binding of serum SARS-green to looped/cyclic peptides of protein N of SARS-CoV Urbani: unit not given here
[2] = tested on: control sera (pooled serum of ten healthy LUMC hospital workers; commercial negative donor pooled serum from the Dutch bloodbank); type: binding, human; set-up: Binding of Control serum LUMC to linear peptides / Binding of Control serum Blood-bank to linear peptides / Binding of Control serum LUMC to looped peptides / Binding of Control Serum Blood-Bank to Looped peptides / Binding of Control serum LUMC to linear peptides of the protein M of SARS-CoV Urbani / Binding of Control serum Blood-bank to linear peptides of the protein M of SARS-CoV Urbani / Binding of Control serum LUMC to looped peptides of the protein M of SARS-CoV Urbani / Binding of Control Serum Blood-Bank to Looped peptides of the protein M of SARS-CoV Urbani: unit not given here
[3] = tested on: rabbit serum obtained by immunizing a rabbit with the SARS-CoV strain Frankfurt 1; type: binding; set-up: Binding of a rabbit serum to linear peptides / Binding of a rabbit serum to looped peptides / Rabbit serum linear peptides / Rabbit serum looped peptides / Binding of a rabbit serum to linear peptides of protein N of SARS-CoV Urbani (Rabbit serum linear peptides) / Binding of a rabbit serum to looped/cyclic peptides of protein N of SARS-CoV Urbani (Rabbit serum looped peptides): unit not given here

With RLFARTRSMWSFNPE the “Binding of serum 1a to linear peptides of protein M of SARS-CoV Urbani” value [1] was 0.9, the “Binding of serum 1a to looped/cyclic peptides of protein M of SARS-CoV Urbani” value [1] was 0.7 and the “Binding of serum 1b to linear peptides of protein M of SARS-CoV Urbani” value [1] was 0.9. For the same sequence, the “Binding of serum 1b to looped/cyclic peptides of protein M of SARS-CoV Urbani” value [1] was 0.8, the “Binding of serum 2 to linear peptides of protein M of SARS-CoV Urbani” value [1] was 0.6 and the “Binding of serum 2 to looped/cyclic peptides of protein M of SARS-CoV Urbani” value [1] was 0.5. For the same sequence, the “Binding of serum 6 to linear peptides of protein M of SARS-CoV Urbani” value [1] was 0.4, the “Binding of serum 6 to looped/cyclic peptides of protein M of SARS-CoV Urbani” value [1] was 0.8 and the “Binding of serum 37 to linear peptides of protein M of SARS-CoV Urbani” value [1] was 1.0. For the same sequence, the “Binding of serum 37 to looped/cyclic peptides of protein M of SARS-CoV Urbani” value [1] was 0.6, the “Binding of serum 62 to linear peptides of protein M of SARS-CoV Urbani” value [1] was 0.9 and the “Binding of serum 62 to looped/cyclic peptides of protein M of SARS-CoV Urbani” value [1] was 0.6. The “Binding of serum London to linear peptides of protein M of SARS-CoV Urbani” value [1] was 0.4, the “Binding of serum London to looped/cyclic peptides of protein M of SARS-CoV Urbani” value [1] was 0.2 and the “Binding of serum SARS-green to linear peptides of protein M of SARS-CoV Urbani” value [1] was 0.5. For the same sequence, the “Binding of serum SARS-green to looped/cyclic peptides of protein M of SARS-CoV Urbani” value [1] was 0.4, the “Binding of serum SARS-yellow to linear peptides of protein M of SARS-CoV Urbani” value [1] was 0.1 and the “Binding of serum SARS-yellow to looped/cyclic peptides of protein M of SARS-CoV Urbani” value [1] was 0.4. For the same sequence, the “Binding of Control Serum Blood-Bank to Looped peptides of the protein M of SARS-CoV Urbani” value [2] was 0.7, the “Binding of Control serum Blood-bank to linear peptides of the protein M of SARS-CoV Urbani” value [2] was 0.8 and the “Binding of Control serum LUMC to linear peptides of the protein M of SARS-CoV Urbani” value [2] was 0.5. For the same sequence, the “Binding of Control serum LUMC to looped peptides of the protein M of SARS-CoV Urbani” value [2] was 0.5, the “Rabbit serum linear peptides” value [3] was 0.4 and the “Rabbit serum looped peptides” value [3] was 0.0.
In the case of PCPSGTYEGNSPFHP, the “Binding of serum 1a to linear peptides of protein X4 of SARS-CoV Urbani” value [1] is reported as 0.7, the “Binding of serum 1a to looped/cyclic peptides of protein X4 of SARS-CoV Urbani” value [1] is reported as 0.7 and the “Binding of serum 1b to linear peptides of protein X4 of SARS-CoV Urbani” value [1] is reported as 0.5. For the same sequence, the “Binding of serum 1b to looped/cyclic peptides of protein X4 of SARS-CoV Urbani” value [1] was 0.1, the “Binding of serum 2 to linear peptides of protein X4 of SARS-CoV Urbani” value [1] was 0.4 and the “Binding of serum 2 to looped/cyclic peptides of protein X4 of SARS-CoV Urbani” value [1] was 0.7. For the same sequence, the “Binding of serum 6 to linear peptides of protein X4 of SARS-CoV Urbani” value [1] was 0.5, the “Binding of serum 6 to looped/cyclic peptides of protein X4 of SARS-CoV Urbani” value [1] was 0.5 and the “Binding of serum 37 to linear peptides of protein X4 of SARS-CoV Urbani” value [1] was 0.7. The “Binding of serum 37 to looped/cyclic peptides of protein X4 of SARS-CoV Urbani” value [1] was 0.7, the “Binding of serum 62 to linear peptides of protein X4 of SARS-CoV Urbani” value [1] was 0.7 and the “Binding of serum 62 to looped/cyclic peptides of protein X4 of SARS-CoV Urbani” value [1] was 0.7. For the same sequence, the “Binding of serum London to linear peptides of protein X4 of SARS-CoV Urbani” value [1] was 0.7, the “Binding of serum London to looped/cyclic peptides of protein X4 of SARS-CoV Urbani” value [1] was 0.3 and the “Binding of serum SARS-green to linear peptides of protein X4 of SARS-CoV Urbani” value [1] was 0.5. For the same sequence, the “Binding of serum SARS-green to looped/cyclic peptides of protein X4 of SARS-CoV Urbani” value [1] was 0.4, the “Binding of serum SARS-yellow to linear peptides of protein X4 of SARS-CoV Urbani” value [1] was 0.7 and the “Binding of serum SARS-yellow to looped/cyclic peptides of protein X4 of SARS-CoV Urbani” value [1] was 0.4. The “Binding of Control Serum Blood-Bank to Looped peptides” value [2] was 0.7, the “Binding of Control serum Blood-bank to linear peptides” value [2] was 0.6 and the “Binding of Control serum LUMC to linear peptides” value [2] was 0.5. For the same sequence, the “Binding of Control serum LUMC to looped peptides” value [2] was 0.9, the “Rabbit serum linear peptides” value [3] was 0.6 and the “Rabbit serum looped peptides” value [3] was 0.4.
With YFLQCINACRIIMRC the “Binding of serum 1a to linear peptides of protein X1 of SARS-CoV Urbani” value [1] was 0.7, the “Binding of serum 1a to looped/cyclic peptide (PEPSCAN-ELISA)” value [1] was 0.6 and the “Binding of serum 1b to linear peptides of protein X1 of SARS-CoV Urbani” value [1] was 0.6. The “Binding of serum 1b to looped/cyclic peptide (PEPSCAN-ELISA)” value [1] was 0.4, the “Binding of serum 2 to linear peptides of protein X1 of SARS-CoV Urbani” value [1] was 0.5 and the “Binding of serum 2 to looped/cyclic peptide (PEPSCAN-ELISA)” value [1] was 0.4. The “Binding of serum 6 to linear peptides of protein X1 of SARS-CoV Urbani” value [1] was 0.5, the “Binding of serum 6 to looped/cyclic peptide (PEPSCAN-ELISA)” value [1] was 1.6 and the “Binding of serum 37 to linear peptides of protein X1 of SARS-CoV Urbani” value [1] was 0.6. For the same sequence, the “Binding of serum 37 to looped/cyclic peptide (PEPSCAN-ELISA)” value [1] was 0.5, the “Binding of serum 62 to linear peptides of protein X1 of SARS-CoV Urbani” value [1] was 0.6 and the “Binding of serum 62 to looped/cyclic peptide (PEPSCAN-ELISA)” value [1] was 0.6. The “Binding of serum London to linear peptides of protein X1 of SARS-CoV Urbani” value [1] was 0.2, the “Binding of serum London to looped/cyclic peptide (PEPSCAN-ELISA)” value [1] was 1.6 and the “Binding of serum SARS-green to linear peptides of protein X1 of SARS-CoV Urbani” value [1] was 0.3. The “Binding of serum SARS-green to looped/cyclic peptide (PEPSCAN-ELISA)” value [1] was 0.2, the “Binding of serum SARS-yellow to linear peptides of protein X1 of SARS-CoV Urbani” value [1] was 0.3 and the “Binding of serum SARS-yellow to looped/cyclic peptide (PEPSCAN-ELISA)” value [1] was 0.6. For the same sequence, the “Binding of Control Serum Blood-Bank to Looped peptides” value [2] was 0.6, the “Binding of Control serum Blood-bank to linear peptides” value [2] was 0.8 and the “Binding of Control serum LUMC to linear peptides” value [2] was 0.7. The “Binding of Control serum LUMC to looped peptides” value [2] was 0.6, the “Binding of a rabbit serum to linear peptides” value [3] was 0.1 and the “Binding of a rabbit serum to looped peptides” value [3] was 0.8.
